Test [1] has as its system STK. In words: DiscoveRx STK HitHunter Assay. Type of test: biochemical.
The subject of test [2] is STK. Description: Fluorescent Polarization STK Assay (FP Assay). Type of test: biochemical.

Structures are written as SMILES.

Take `COC1C(N(C)CC(=O)O)CC2OC1(C)n1c3ccccc3c3c4c(c5c6ccccc6n2c5c31)C(=O)NC4` (stereo not shown) [STA-CM, N-carboxymethylstaurosporine]: the IC50 in test [1] was 0.092 µM; in test [2], 0.22 µM.
Consider `CN[C@@H]1C[C@H]2O[C@@](C)([C@@H]1OC)n1c3ccccc3c3c4c(c5c6ccccc6n2c5c31)C(=O)NC4` [staurosporine], for which the half-maximal inhibitory concentration (IC50) in test [1] worked out at 0.009 µM; in test [2], 0.022 µM.

As a reminder, the IC50 is the concentration that gives 50% inhibition. Higher therefore signals weaker potency.
